Twelve compounds from ChEMBL document CHEMBL5360581, “Discovery of a novel dual functional phenylpyrazole-styryl hybrid that induces apoptotic and autophagic cell death in bladder cancer cells” (Eur J Med Chem, 2023) can be followed below.

Molecules are shown by their SMILES. Active and inactive are the calls of the source. No cut-off for these calls is given here.

The nature of series [1]: Selectivity index, ratio of IC50 for cytotoxicity against human NHDF cells to IC50 for cytotoxicity against human HT-1080 cells.
Series [2] relates to EJ-28. The series can be described thus: Cytotoxicity against human EJ-28 cells assessed inhibition of cell growth incubated for 72 hrs by MTT assay. Type of series: functional, cell-based. The conditions noted are these: EJ-28, 72 h.
In series [3] the test system is SW-620. The series can be described thus: Cytotoxicity against human SW620 cells assessed inhibition of cell growth incubated for 72 hrs by MTT assay. The series is classed as functional, cell-based. Particulars: SW-620, 72 h.
In series [4] the test system is A549. The series can be described thus: Cytotoxicity against human A549 cells assessed inhibition of cell growth incubated for 72 hrs by MTT assay. The series is classed as functional, cell-based. The conditions noted are these: A549, 72 h. (In general: Tetrazolium dyes change colour on reduction, which living cells bring about.)
The subject of series [5] is A549. As to the kind of experiment: Antiproliferative activity against human A549 cells assessed as reduction in cell viability at 20 uM measured for 72 hrs by MTT assay. The series is classed as functional, cell-based.
In series [6] the test system is HT-1080. As to the kind of experiment: Antiproliferative activity against human HT-1080 cells assessed as reduction in cell viability at 20 uM measured for 72 hrs by MTT assay. Type of series: functional, cell-based.
Series [7] is described as follows: Selectivity index, ratio of IC50 for cytotoxicity against human NHDF cells to IC50 for cytotoxicity against human A549 cells. Particulars: NHDF cells and A549 cells, read-out: Ratio IC50. Type of series: toxicity, cell-based.
Series [8] can be described thus: Selectivity index, ratio of IC50 for cytotoxicity against human NHDF cells to IC50 for cytotoxicity against human EJ-28 cells.
For series [9], the system named is MCF7. The series can be described thus: Cytotoxicity against human MCF7 cells assessed inhibition of cell growth incubated for 72 hrs by MTT assay. The series is classed as functional, cell-based. Particulars: MCF7, 72 h.
Series [10] relates to MCF7. The series can be described thus: Antiproliferative activity against human MCF7 cells assessed as reduction in cell viability at 20 uM measured for 72 hrs by MTT assay. Type of series: functional, cell-based.
In series [11] the test system is HT-1080. The series can be described thus: Cytotoxicity against human HT-1080 cells assessed inhibition of cell growth incubated for 72 hrs by MTT assay. Type of series: functional, cell-based. The conditions noted are these: HT-1080, 72 h.
The nature of series [12]: Selectivity index, ratio of IC50 for cytotoxicity against human NHDF cells to IC50 for cytotoxicity against human SW620 cells.
Series [13] can be described thus: Selectivity index, ratio of IC50 for cytotoxicity against human NHDF cells to IC50 for cytotoxicity against human MCF7 cells. The series is classed as toxicity, cell-based. The conditions noted are these: NHDF cells and MCF7 cells, read-out: Ratio IC50.
Series [14] relates to SW-620. As to the kind of experiment: Antiproliferative activity against human SW620 cells assessed as reduction in cell viability at 20 uM measured for 72 hrs by MTT assay. The series is classed as functional, cell-based.
Series [15] is described as follows: Cytotoxicity against human NHDF cells assessed inhibition of cell growth incubated for 72 hrs by MTT assay. The series is classed as toxicity, cell-based.
The subject of series [16] is EJ-28. As to the kind of experiment: Antiproliferative activity against human EJ-28 cells assessed as reduction in cell viability at 20 uM measured for 72 hrs by MTT assay. Type of series: functional, cell-based.

One may read the IC50 as the midpoint of a concentration-inhibition curve. The low end stands for inhibition by little substance, the high end for a need for much substance. In the case of `O=[N+]([O-])c1cccc(/C=C/c2cc(-c3ccccc3O)n(-c3ccccc3)n2)c1`, the “Ratio IC50” value in series [1], in series [8] and in [12] was 2 throughout. Besides, the half-inhibitory concentration (IC50) with EJ-28 [2] worked out at 7.4 µM; in the series on SW-620 [3], 9.7 µM; in the series with A549 [4], 21.7 µM; in the series with MCF7 [9], 15 µM; with HT-1080 [11], 16.5 µM. Also, the result in the series on A549 [5], in the series on HT-1080 [6], with MCF7 [10], in the series on SW-620 [14] and in the series with EJ-28 [16] was Active. The selectivity ratio in [7] and in series [13] was 2 each time. This compound had an IC50 at 72 h in [15] of 42.9 µM.

On to `COc1cccc(/C=C/c2cc(-c3cc(Cl)ccc3O)n(-c3ccccc3)n2)c1`, for which the “Ratio IC50” value in [1], in series [8] and in series [12] was 2.3 throughout. Besides, the concentration for half-maximal inhibition (IC50) with EJ-28 [2] is 8.6 µM; in the series with SW-620 [3], 19.5 µM; with A549 [4] it was 16.5 µM; in the series on MCF7 [9] it was 10.9 µM; in the series with HT-1080 [11], 17.4 µM. The outcome in the series on A549 [5], with HT-1080 [6], in the series on MCF7 [10], in the series with SW-620 [14] and with EJ-28 [16] was Active. The selectivity ratio in [7] and in [13] was 2.3 in each case. Also, the IC50 at 72 h in series [15] was found to be 45.6 µM.

Turning to `Oc1ccc(Cl)cc1-c1cc(/C=C/c2ccc(Cl)cc2)nn1-c1ccccc1`, the “Ratio IC50” value in series [1], in [8] and in series [12] was 2 each time. Also, the IC50 worked out at 6.5 µM with EJ-28 [2]; 16.6 µM in the series with SW-620 [3]; 21.5 µM in the series with A549 [4]; 10.6 µM with MCF7 [9]; 17.4 µM in the series with HT-1080 [11]. Further, the result in the series with A549 [5], in the series with HT-1080 [6], in the series with MCF7 [10], in the series on SW-620 [14] and in the series with EJ-28 [16] was Active. Further, the selectivity ratio in [7] and in [13] was 2 each time. In series [15], this compound registered a half-inhibitory concentration (IC50) at 72 h of 42.9 µM.

For `Oc1ccccc1-c1cc(/C=C/c2cccc(Cl)c2)nn1-c1ccccc1`, the “Ratio IC50” value in [1], in series [8] and in series [12] was 1.6 throughout. Besides, the IC50 in the series with EJ-28 [2] was determined as 8.9 µM; with SW-620 [3], 11.6 µM; in the series on A549 [4] it was 24.3 µM; in the series with MCF7 [9], 10.9 µM; with HT-1080 [11], 13.8 µM. Also, the result with A549 [5], with HT-1080 [6], in the series on MCF7 [10], in the series with SW-620 [14] and in the series on EJ-28 [16] was Active. Also, the selectivity ratio in series [7] and in series [13] was 1.6 in each case. In series [15], this compound returned an IC50 at 72 h of 39.4 µM.

Regarding `Cc1ccc(/C=C/c2cc(-c3cc(Cl)ccc3O)n(-c3ccccc3)n2)s1`, the “Ratio IC50” value in [1], in series [8] and in [12] was 1.7 in each case. Besides, the IC50 in the series with EJ-28 [2] came out at 8.6 µM; with SW-620 [3], 23 µM; with A549 [4] it was 22.7 µM; in the series on MCF7 [9], 11.1 µM; with HT-1080 [11], 21.7 µM. Besides, the result in the series on A549 [5], with HT-1080 [6], in the series on MCF7 [10], in the series on SW-620 [14] and in the series on EJ-28 [16] was Active. Besides, the selectivity ratio in series [7] and in series [13] was 1.7 in each case. The IC50 at 72 h in [15] is 39.4 µM.

In the case of `Cc1ccc(/C=C/c2cc(-c3ccccc3O)n(-c3ccccc3)n2)s1`, the “Ratio IC50” value in [1], in series [8] and in series [12] was 1.1 each time. The IC50 in the series with EJ-28 [2] turned out to be 11 µM; in the series with SW-620 [3], 16.2 µM; in the series with A549 [4], 14.5 µM; in the series on MCF7 [9], 12.6 µM; in the series on HT-1080 [11], 14.2 µM. For the same compound, the result in the series with A549 [5], with HT-1080 [6], with MCF7 [10], with SW-620 [14] and with EJ-28 [16] was Active. For the same compound, the selectivity ratio in series [7] and in series [13] was 1.1 each time. This compound came in with an IC50 at 72 h in series [15] of 17.9 µM.

Consider `Oc1ccccc1-c1cc(/C=C/c2ccc(Cl)s2)nn1-c1ccccc1`, for which the “Ratio IC50” value in series [1] is recorded as 1.1; in [8], 1.1; in [12], 0.9. The half-maximal inhibitory concentration (IC50) was 13.6 µM with EJ-28 [2]; 16.3 µM with SW-620 [3]; 21.1 µM in the series with A549 [4]; 14.5 µM in the series on MCF7 [9]; 17.3 µM with HT-1080 [11]. For the same compound, the outcome with A549 [5], in the series with HT-1080 [6], with MCF7 [10], in the series with SW-620 [14] and with EJ-28 [16] was Active. Further, the selectivity ratio in series [7] and in series [13] was 1.1 each time. The same compound returned an IC50 at 72 h in [15] of 18.5 µM.

For `Oc1ccc(Cl)cc1-c1cc(/C=C/c2cccs2)nn1-c1ccccc1`, the “Ratio IC50” value in series [1], in series [8] and in [12] was 2 throughout. The IC50 in the series on EJ-28 [2] was determined as 11.6 µM; with SW-620 [3], 19 µM; in the series on A549 [4] it was 17.1 µM; in the series with MCF7 [9] it was 5.5 µM; with HT-1080 [11], 19.6 µM. The result with A549 [5], with HT-1080 [6], in the series with MCF7 [10], with SW-620 [14] and with EJ-28 [16] was Active. The selectivity ratio in series [7] and in [13] was 2 throughout. In addition, it took 39.6 µM to reach half-maximal inhibition in [15] (IC50 at 72 h).

Consider `Oc1ccc(Cl)cc1-c1cc(/C=C/c2ccc(Cl)s2)nn1-c1ccccc1`, for which the “Ratio IC50” value in series [1], in series [8] and in series [12] was 1.4 in each case. The IC50 with EJ-28 [2] is 10.1 µM; in the series on SW-620 [3], 10.4 µM; in the series with A549 [4], 13.3 µM; with MCF7 [9], 8.7 µM; in the series with HT-1080 [11], 13.5 µM. The outcome in the series on A549 [5], in the series on HT-1080 [6], in the series on MCF7 [10], in the series on SW-620 [14] and with EJ-28 [16] was Active. Besides, the selectivity ratio in series [7] and in [13] was 1.4 in each case. Also, in series [15], the IC50 at 72 h was found to be 19.2 µM.

`COc1cc(/C=C/c2cc(-c3ccccc3O)n(-c3ccccc3)n2)cc(OC)c1OC`: the “Ratio IC50” value in series [1], in [8] and in [12] was more than 3.4 in each case. The half-maximal inhibitory concentration (IC50) with EJ-28 [2] came to 12.3 µM; with SW-620 [3], 7.6 µM; in the series on A549 [4] it was 14.6 µM; with MCF7 [9] it was 10.4 µM; in the series with HT-1080 [11], 14.1 µM. In addition, the result in the series with A549 [5], in the series with HT-1080 [6], in the series with MCF7 [10], with SW-620 [14] and in the series on EJ-28 [16] was Active. The selectivity ratio in [7] and in [13] was more than 3.4 in each case. The compound also gave an IC50 at 72 h in series [15] of more than 50 µM.

`Oc1ccccc1-c1cc(/C=C/c2ccc(Cl)c(Cl)c2)nn1-c1ccccc1`: the “Ratio IC50” value in [1], in series [8] and in series [12] was 2 throughout. Moreover, the concentration for half-maximal inhibition (IC50) in the series on EJ-28 [2] came out at 15.9 µM; with SW-620 [3] it was 18.6 µM; in the series with A549 [4], 21.5 µM; with MCF7 [9], 18.1 µM; in the series with HT-1080 [11], 22.2 µM. In addition, the outcome with A549 [5], in the series with HT-1080 [6], in the series on MCF7 [10], with SW-620 [14] and in the series with EJ-28 [16] was Active. Further, the selectivity ratio in series [7] and in [13] was 2 each time. Also, it took 43.5 µM to reach half-maximal inhibition in series [15] (IC50 at 72 h).

Turning to `COc1cc(/C=C/c2cc(-c3cc(Cl)ccc3O)n(-c3ccccc3)n2)cc(OC)c1OC`, the “Ratio IC50” value in series [1], in [8] and in [12] was 3.9 in each case. In addition, the IC50 worked out at 10.1 µM in the series on EJ-28 [2]; 4.4 µM in the series with SW-620 [3]; 9.4 µM with A549 [4]; 5.9 µM with MCF7 [9]; 8.9 µM in the series with HT-1080 [11]. The result in the series with A549 [5], in the series with HT-1080 [6], in the series with MCF7 [10], with SW-620 [14] and with EJ-28 [16] was Active. Further, the selectivity ratio in [7] and in series [13] was 3.9 throughout. In series [15], this compound returned an IC50 at 72 h of 39.6 µM.
